Test results published in US11753408B2, “Compounds and method for blocking transmission of malarial parasite” (The United States of America, as represented by the …, priority 2016, dated 2023).
Read-outs that look alike come from different tables or passages of the source.

What was measured:
[1] = Microsomal stability (rat); format: in vitro ADME; conditions: rat microsomes
Solubility at pH 7.4 = format: physicochemical
PAMPA permeability = format: in vitro ADME
[2] = tested on: Asexual parasites of P. falciparum strain 3D7; assay: In vitro drug activity on asexual parasites (SYBR Green assay); format: cell-based, Plasmodium falciparum
Experimental: Cell culture. Asexual parasites of P. falciparum strain 3D7 were cultured as described previously [Trager W, et al., Journal of Parasitology 2005, 91: 484-486], Stage III-V gametocytes were selected and enriched with 3-day treatment with 50 mM N-acetylglucosamine (NAG) and the following Percoll density gradient centrifugation after gametocyte production [Tanaka T Q, et al., Molecular and Biochemical Parasitology, 2011, 111: 160-163], Gametocytes of HB3 and Dd2 strains were produced and then set up for assay in a similar process. HepG2 cells (ATCC, cat. no. 77400) were cultured in 175-cm^2 tissue culture flasks with 30 ml growth medium at 37° C. in a 5% CO2 humidified atmosphere. Growth medium was made with Dulbecco's Modified Eagle Medium with 10% fetal bovine serum (FBS). Growth medium was replaced every other day and cells were passed at 75% confluence.
Asexual parasites of P. falciparum strain 3D7 were cultured as described previously (Trager, W. et al., J. Parasitol. 2005, 91(3): 484-486). Drug activity on asexual stage parasites was tested using a SYBR Green assay as described previously (Eastman, R. T. et al., Antimicrob. Agents Chemother. 2013, 57(1): 425-435; Smilkstein, M. et al., Antimicrob. Agents Chemother. 2004, 48(5): 1803-1806). Briefly, parasites were diluted to 0.5% parasitemia in complete culture medium with 2% hematocrit and drugs diluted in DMSO (≤0.5%) and were loaded into a 96-well plate (200 μl/well). No drug and RBC alone wells were included as positive and background controls, respectively, and each testing condition was examined in duplicated. After 72 h incubation under the standard culture condition and a freeze-thaw lysis step at −80° C. and room temperature, 100 μl/well of lysis buffer containing SYBR Green I was added to the parasite culture and incubated for 30 min at room temperature. The fluorescence of each well was measured at 520 nm following excitation at 490 nm using a FLUOstar Optima™ microplate reader (BMG Labtech).

mTOR = mTOR (Homo sapiens, UniProt P42345); assay: mTOR activity (no method described); format: biochemical
[3] = P. falciparum 3D7 asexual parasites, 72 h, SYBR Green

| Compound | Microsomal Stability (rat) T1/2 [1] | Sol @ pH 7.4 (ug/mL) (Solubility at pH 7.4) | PAMPA Permeability (×10^6 cm/s) (PAMPA permeability) | EC50 [2, 3] | EC50 [2] | mTOR (mTOR) | Sol @ pH 7.4 (Solubility at pH 7.4) | PAMPA Permeability (PAMPA permeability) |
| --- | --- | --- | --- | --- | --- | --- | --- | --- |
| CNCc1cc(-n2c(=O)ccc3cnc4ccc(-c5ccc(Cl)cc5)cc4c32)ccc1C(=O)N1CCOCC1 [Compound 200] |  |  |  |  | 60 nM | 15.37 µM | 7.2 ug/mL | 1070 ×10⁻⁶ cm/s |
| CN1CCN(CCCNC(=O)c2ccc(-n3c(=O)ccc4cnc5ccc(-c6ccc(Cl)cc6)cc5c43)cc2)CC1 [Compound 262] | 4.3 min |  |  |  | 214 nM | 5.399 µM | 0 ug/mL |  |
| O=C(NC1CCN(CCO)CC1)c1ccc(-n2c(=O)ccc3cnc4ccc(-c5ccc(Cl)cc5)cc4c32)cc1 [Compound 263] | >30 min |  |  |  | 58.8 nM | 1.512 µM | 0 ug/mL |  |
| CN1CCN(CCNC(=O)c2ccc(-n3c(=O)ccc4cnc5ccc(-c6ccc(Cl)cc6)cc5c43)cc2)CC1 [Compound 264] | 4.5 min |  |  |  | 56.6 nM | 1.321 µM | 0 ug/mL |  |
| O=C(NCCN1CCCCC1)c1ccc(-n2c(=O)ccc3cnc4ccc(-c5ccc(Cl)cc5)cc4c32)cc1 [Compound 265] | 1.9 min |  |  |  | 132 nM | 2.064 µM | 0 ug/mL |  |
| CCN(CC)CCCNC(=O)c1ccc(-n2c(=O)ccc3cnc4ccc(-c5ccc(Cl)cc5)cc4c32)cc1 [Compound 266] | 2.8 min |  |  |  | 58.3 nM | 3.013 µM | 0 ug/mL |  |
| O=C(NCCCN1CCCC1)c1ccc(-n2c(=O)ccc3cnc4ccc(-c5ccc(F)cc5)cc4c32)cc1 [Compound 267] | 8 min |  |  |  | 58.1 nM | 3.878 µM | 0 ug/mL |  |
| O=C(NCCN1CCOCC1)c1ccc(-n2c(=O)ccc3cnc4ccc(-c5ccc(F)cc5)cc4c32)cc1 [Compound 268] | 2 min |  |  |  | 211 nM | 4.985 µM | 0 ug/mL |  |
| NC1(c2ccc(-c3ccc4ncc5ccc(=O)n(-c6ccc(C(=O)N7CCN(CCO)CC7)cc6)c5c4c3)cc2)CC1 [Compound 269] | >30 min |  |  |  | 390 nM | 3.874 µM | 0 ug/mL |  |
| CN(C)CCN1CCN(C(=O)c2ccc(-n3c(=O)ccc4cnc5ccc(-c6ccc(C7(N)CC7)cc6)cc5c43)cc2)CC1 [Compound 270] | >30 min |  |  |  | 348 nM | 3.254 µM | 0 ug/mL |  |
| N#Cc1cc(-n2c(=O)ccc3cnc4ccc(-c5ccc(Cl)cc5)cc4c32)ccc1C(=O)N1CCOCC1 [Compound 271] | 14 min |  |  |  | 613 nM | 16.14 µM | 0 ug/mL |  |
| O=C(c1ccc(-n2c(=O)ccc3c(O)nc4ccc(-c5ccc(Cl)cc5)cc4c32)cc1)N1CCOCC1 [Compound 294] | 8.4 min |  |  |  | 2050 nM | 4.586 µM | 0 ug/mL |  |
| O=C(c1ccc(-n2c(=O)ccc3cnc4ccc(-c5ccc(Cl)cc5)cc4c32)cc1)N1CCC(O)CC1 [Compound 302] | 12 min |  |  |  | 16.4 nM | 1.595 µM | <1 ug/mL |  |
| O=C(NO)c1ccc(-n2c(=O)ccc3cnc4ccc(-c5ccc(Cl)cc5)cc4c32)cc1 [Compound 303] | >30 min |  |  |  | 6.45 nM | 0.2376 µM | 0.7 ug/mL |  |
| NCCCN1Cc2cc(-n3c(=O)ccc4cnc5ccc(-c6ccc(Cl)cc6)cc5c43)ccc2C1=O [Compound 343] | >30 min | 13.4 ug/mL | <2.5 ×10^6 cm/s | 20.9 nM |  |  |  |  |
| CC(C)(C)OC(=O)CN1Cc2cc(-n3c(=O)ccc4cnc5ccc(-c6ccc(Cl)cc6)cc5c43)ccc2C1=O [Compound 364] | >30 min | 2.7 ug/mL | 75.9 ×10^6 cm/s | 4580 nM |  |  |  |  |
| O=C1NCc2cc(-n3c(=O)ccc4cnc5ccc(-c6ccc(OC7CCNCC7)cc6)cc5c43)ccc21 [Compound 380] | >30 min | 2.6 ug/mL | <10.7 ×10^6 cm/s | 310 nM |  |  |  |  |

Now from value to compound:

| Microsomal Stability (rat) T1/2 [1] | Sol @ pH 7.4 (ug/mL) (Solubility at pH 7.4) | PAMPA Permeability (×10^6 cm/s) (PAMPA permeability) | EC50 [2, 3] | EC50 [2] | mTOR (mTOR) | Sol @ pH 7.4 (Solubility at pH 7.4) | PAMPA Permeability (PAMPA permeability) | Compound |
| --- | --- | --- | --- | --- | --- | --- | --- | --- |
| 9.6 min | <1 ug/mL | 21 ×10^6 cm/s |  |  |  |  |  | Cc1cc(N2CCNCC2)c(C#N)cc1-n1c(=O)ccc2cnc3ccc(-c4ccc(Cl)cc4)cc3c21 [Compound 11] |
| >30 min | 61 ug/mL | 439.2 ×10^6 cm/s | 288 nM |  |  |  |  | CS(=O)(=O)c1ccc(-n2c(=O)ccc3cnc4ccc(-c5ccc(CN6CCCC6)cc5)cc4c32)cc1 [Compound 33] |
| 17.1 min | <1 ug/mL | <1 ×10^6 cm/s | 59.4 nM |  |  |  |  | Cc1cc(S(C)(=O)=O)ccc1-n1c(=O)ccc2cnc3ccc(-c4ccc(Cl)cc4)cc3c21 [Compound 34] |
| >30 min | 4.3 ug/mL | 35 ×10^6 cm/s | 75.8 nM |  |  |  |  | CS(=O)(=O)c1ccc(-n2c(=O)ccc3cnc4ccc(-c5ccc(Cl)cc5)cc4c32)cc1CN1CCNCC1 [Compound 35] |
| >30 min | 5.9 ug/mL | 6.5 ×10^6 cm/s | 188 nM |  |  |  |  | CS(=O)(=O)c1ccc(-n2c(=O)ccc3cnc4ccc(-c5ccc(C6(N)CC6)cc5)cc4c32)cc1 [Compound 36] |
| >30 min | 2.3 ug/mL | <1 ×10^6 cm/s | 8.49 nM |  |  |  |  | CS(=O)(=O)c1ccc(-n2c(=O)ccc3cnc4ccc(-c5ccc(N)nc5)cc4c32)cc1Cl [Compound 61] |
| >30 min | 15.7 ug/mL | 148.7 ×10^6 cm/s | 131 nM |  |  |  |  | CN(C)CCc1ccc(-c2ccc3ncc4ccc(=O)n(-c5ccc(S(C)(=O)=O)cc5)c4c3c2)cc1 [Compound 68] |
| >30 min | >73 ug/mL | 828.3 ×10^6 cm/s | 1940 nM |  |  |  |  | Cc1cc(S(C)(=O)=O)ccc1-n1c(=O)ccc2cnc3ccc(-c4ccc(CN(C)C)cc4)cc3c21 [Compound 69] |
| 31.3 min | 1.2 ug/mL | 148.4 ×10^6 cm/s | 20.1 nM |  |  |  |  | Cc1cc(S(C)(=O)=O)ccc1-n1c(=O)ccc2cnc3ccc(-c4ccc(N)nc4)cc3c21 [Compound 70] |
| >30 min | 2 ug/mL | 133.5 ×10^6 cm/s | 56.6 nM |  |  |  |  | CN(C)CCOc1ccc(-c2ccc3ncc4ccc(=O)n(-c5ccc(S(C)(=O)=O)cc5)c4c3c2)cc1 [Compound 71] |
|  |  |  |  | 177 nM | 1.061 µM | 2.2 ug/mL | 456 ×10⁻⁶ cm/s | COc1cc(C(=O)NC2CC2)ccc1-n1c(=O)ccc2cnc3ccc(-c4ccc(C5(N)CC5)cc4)cc3c21 [Compound 205] |
| >30 min |  |  |  | 18.9 nM | 4.164 µM | <1 ug/mL |  | COc1cc(C(=O)NC2CC2)ccc1-n1c(=O)ccc2cnc3ccc(-c4ccc(Cl)c(O)c4)cc3c21 [Compound 273] |
| >30 min |  |  |  | 206 nM | 50 µM | <1 ug/mL |  | O=C(NC1CC1)c1ccc(-n2c(=O)ccc3cnc4ccc(-c5ccc(F)cc5)cc4c32)cn1 [Compound 301] |
|  | >72.0 ug/mL | 343.6 ×10^6 cm/s | 18800 nM |  |  |  |  | CN(C)Cc1ccc(-c2ccc3ncc4ccc(=O)n(-c5ccc6c(c5)C(=O)N(C)C6=O)c4c3c2)cc1 [Compound 352] |
| 23 min | <1 ug/mL | 31 ×10^6 cm/s | 2960 nM |  |  |  |  | O=C1NC(=O)c2cc(-n3c(=O)ccc4cnc5ccc(-c6ccc(Cl)cc6)cc5c43)ccc21 [Compound 379] |
| >30 min | 44.9 ug/mL | 4 ×10^6 cm/s |  |  |  |  |  | CC(N)c1ccc(-c2ccc3ncc4ccc(=O)n(-c5ccc6c(c5)CNC6=O)c4c3c2)cc1 (stereo not drawn) [Compound 381] |
